# Source: patent publication US4826856A, “Calcium antagonistic dihydropyridine derivative” (Yason s.r.l., priority 1985, dated 1989)
# Read-outs that look alike come from different tables or passages of the source.
# How the values were obtained:
# [1] = Pharmacokinetics and bioavailability in dogs; format: in vivo; conditions: dog; for half-life: hydrochloride
# Description: YS 201 hydrochloride was intravenously and orally administered to dogs at 1 and 10 mg/kg respectively.
# [2] = tested on: Sprague-Dawley rats; assay: Ventricular arrhythmias during coronary artery ligation period; format: in vivo, rat; set-up: EBs, mean value of indices + SEM / VT, mean value of indices + SEM / VF, mean value of indices + SEM: scale not given here
# Description: Ventricular arrhythmias after coronary artery ligation in the acute phase or during the period of re-circulation
# Sprague-Dawley rats were subjected to ligation of the left coronary artery according to the method of Clark et al. in J. Pharmacol. Methods 3, 357-368, 1980. The drugs were administered by gastric tube 30 minutes before the ligation. By means of a continuous electrocardiographic recording, the ventricular arrhythmias such as ectopic beats (EB), ventricular tachycardia (VT), ventricular fibrillation (VF) for 30 minutes after ligation, were recorded.
# [3] = Bioavailability after oral administration in normal volunteers; format: in vivo, human; set-up: AUC: concentration or dose not given beside the values; conditions: for Tmax / Cmax / half-life / AUC: human, plasma, po; for Tmax / Cmax: oral 20 mg
# Description: The study was performed in 4 male subjects aged 26-43 years. Pharmacokinetic studies were performed both after acute and repeated administrations. Acute administration […] Further venous blood samples were withdrawn 15-30 minutes and 1.0-1.5-2.0-4.0-6.0-8.0 hours after treatment. Multiple-doses administration […] Blood samples were withdrawn 2-4-8-12 hours after the last treatment.
# [4] = tested on: post-oligoemic rats; assay: Transient cerebral oligoemia in the rat, cerebral water, K+ and Ca++ content; format: in vivo
# Description: Transient cerebral oligoemia in the rat
# The method described by Borzeix in Circulation et Metabolisme du Cerveau 1, 63-79, John Libbey Eurotext Publ. […] The animals were treated by the oral route with the tested drugs twice a day, starting one hour after the ligation and for 3 days, in scalar doses.
# The last dose, at the 71th hour after the occlusion, preceeded by one hour the sacrifice of the animal, whose brain was subjected to the determination of the H2 O, K^+ and Ca^++ content.
# [5] = Acute toxicity in the mouse; conditions: in vivo
# From the text: The acute toxicity of YS 201 given by intraveous route, similar in the males and in the females in the rat as well as in the mouse, is as follows:
# The acute toxicity of YS 201 given by oral route, similar in the males and in the females in the rat as well as in the mouse, is as follows: […]
# [6] = tested on: volunteers; assay: Clinical tolerance of oral treatment in volunteers; format: in vivo, human
# Description: The study was performed in 4 male subjects aged 26-43 years.
# Each volunteer received one capsule of 20 mg of YS 201 with a glass of water.
# The same four volunteers, after the first administration were treated with increasing doses of YS 201: 30-40-50 mg.
# [7] = tested on: normotensive rats; assay: Effect on blood pressure in normotensive rats (intraduodenal); format: in vivo, rat; conditions: 15 mg/kg intraduodenal; for HR (heart rate): in beats/min (unit assumed)
# Description: Comparative effect of YS 201 on 3 month old rats and 6 month old SHR-SP
# YS 201 was given by intraduodenal route at 15 mg/kg in normotensive rats.
smiles,measurement,setting,value
"CCOC(=O)C1=C(C)NC(C)=C(C(=O)OCCN2CCCCC2)C1c1cccc([N+](=O)[O-])c1 (stereo not drawn) [YS 201, ethyl-(β-piperidinoethyl)-2,6-dimethyl-4-(3-nitrophenyl)-1,4-dihydropyridine-3,5-dicarboxylate]",decline in concentration,[1]; 1 mg/kg intravenous,typically biexponential
same,bioavailability,"[1]; in vivo, 10 mg/kg, oral, read-out: average apparent bioavailable fraction",19.4%
same,half-life,"[1]; in vivo, 1 mg/kg intravenous, read-out: mean half-life of elimination",1.47 h
same,half-life,"[1]; in vivo, 10 mg/kg oral, read-out: mean apparent half-life of elimination",2.47 h
same,AUC,"[1]; in vivo, oral, 10 mg/kg, read-out: average AUC (converted)",1080 ng·h/mL
same,Cmax,"[1]; in vivo, oral, 10 mg/kg, read-out: maximum concentration (Cmax)",284 ng/mL
same,Death rate %,[2]; 0.75 mg/kg p.o.,20%
same,"EBs, mean value of indices + SEM",[2]; 0.75 mg/kg p.o.,42.1 ± 9.70
same,VF %,[2]; 0.75 mg/kg p.o.,60%
same,"VF, mean value of indices + SEM",[2]; 0.75 mg/kg p.o.,3.8 ± 1.77
same,"VT, mean value of indices + SEM",[2]; 0.75 mg/kg p.o.,1.3 ± 0.68
same,Death rate %,[2]; 1.5 mg/kg p.o.,0%
same,"EBs, mean value of indices + SEM",[2]; 1.5 mg/kg p.o.,45.7 ± 6.18
same,VF %,[2]; 1.5 mg/kg p.o.,20%
same,"VF, mean value of indices + SEM",[2]; 1.5 mg/kg p.o.,0.5 ± 0.49
same,"VT, mean value of indices + SEM",[2]; 1.5 mg/kg p.o.,1.9 ± 0.32
same,Death rate %,[2]; 3.0 mg/kg p.o.,80%
same,"EBs, mean value of indices + SEM",[2]; 3.0 mg/kg p.o.,36.0 ± 9.11
same,VF %,[2]; 3.0 mg/kg p.o.,100%
same,"VF, mean value of indices + SEM",[2]; 3.0 mg/kg p.o.,4.8 ± 1.41
same,"VT, mean value of indices + SEM",[2]; 3.0 mg/kg p.o.,1.6 ± 0.77
same,reduction of the index attributed to EBs and VT,[2]; whatever the dosage,~2 fold
same,decline of plasma profile (compartment analysis),[3]; acute and repeated administration,declines in one phase
same,unchanged drug in plasma,"[3]; after six hours, acute",still present in the plasma
same,Tmax,"[3]; 20 mg, acute study, read-out: average T max (converted)",1.5 h
same,Cmax,"[3]; 20 mg, acute study, ±2.65 S.E., read-out: mean peak plasma level",57.2 ng/mL
same,half-life,"[3]; 20 mg, after acute administration, mean of 4 volunteers, read-out: T1/2 el. (converted)",1.88 h
same,half-life,"[3]; 20 mg, after acute administration, volunteer 1, read-out: T1/2 el. (converted)",1.99 h
same,half-life,"[3]; 20 mg, after acute administration, volunteer 2, read-out: T1/2 el. (converted)",1.05 h
same,half-life,"[3]; 20 mg, after acute administration, volunteer 3, read-out: T1/2 el. (converted)",1.8 h
same,half-life,"[3]; 20 mg, after acute administration, volunteer 4, read-out: T1/2 el. (converted)",2.66 h
same,half-life,"[3]; 20 mg, after acute administration, ±0.65 S.D., read-out: mean T1/2 el. / terminal half life (converted)",1.8 h
same,Cmax,"[3]; 20 mg, mean of 4 volunteers, read-out: C max",64.8 ng/mL
same,Tmax,"[3]; 20 mg, mean of 4 volunteers, read-out: T max",1.5 h
same,Cmax,"[3]; 20 mg, volunteer 1, read-out: C max",56 ng/mL
same,Tmax,"[3]; 20 mg, volunteer 1, read-out: T max",1.5 h
same,Cmax,"[3]; 20 mg, volunteer 2, read-out: C max",55 ng/mL
same,Tmax,"[3]; 20 mg, volunteer 2, read-out: T max",1.5 h
same,Cmax,"[3]; 20 mg, volunteer 3, read-out: C max",65 ng/mL
same,Tmax,"[3]; 20 mg, volunteer 3, read-out: T max",2 h
same,Cmax,"[3]; 20 mg, volunteer 4, read-out: C max",83 ng/mL
same,Tmax,"[3]; 20 mg, volunteer 4, read-out: T max",1 h
same,half-life,"[3]; after multiple-doses administration, mean of 4 volunteers, read-out: T1/2 el. (converted)",4.29 h
same,half-life,"[3]; after multiple-doses administration, volunteer 1, read-out: T1/2 el. (converted)",4.11 h
same,half-life,"[3]; after multiple-doses administration, volunteer 2, read-out: T1/2 el. (converted)",4.44 h
same,half-life,"[3]; after multiple-doses administration, volunteer 3, read-out: T1/2 el. (converted)",4.12 h
same,half-life,"[3]; after multiple-doses administration, volunteer 4, read-out: T1/2 el. (converted)",4.49 h
same,half-life,"[3]; after repeated administration, read-out: mean terminal half life (converted)",4.29 h
same,AUC,[3]; mean of 4 volunteers,252 ng·h/mL
same,AUC,[3]; volunteer 1,219 ng·h/mL
same,AUC,[3]; volunteer 2,181 ng·h/mL
same,AUC,[3]; volunteer 3,269 ng·h/mL
same,AUC,[3]; volunteer 4,388 ng·h/mL
same,plasma level relative to peak,"[3]; multiple dose, four hours after administration",reduced to the half
same,plasma level of unchanged drug vs acute treatment at same time,"[3]; multiple dose, two hours after last treatment",three times upper
same,unchanged drug in plasma,"[3]; twelve hours after treatment, multiple dose",still present in the plasma
same,Cerebral content of H2O,[4]; 0.25 mg/kg p.o.,79.2 ± 0.57%
same,Cerebral content of Ca++,[4]; 0.5 mg/kg p.o.,11.7 ± 3.00 mmol · kg^-1 dry weig
same,Cerebral content of H2O,[4]; 0.5 mg/kg p.o.,78.3 ± 0.39%
same,Cerebral content of Ca++,[4]; 1 mg/kg p.o.,11.7 ± 5.53 mmol · kg^-1 dry weig
same,Cerebral content of H2O,[4]; 1 mg/kg p.o.,77.8 ± 0.47%
same,Cerebral content of Ca++,[4]; 3 mg/kg p.o.,12.6 ± 3.89 mmol · kg^-1 dry weig
same,Cerebral content of H2O,[4]; 3 mg/kg p.o.,78.8 ± 0.44%
same,LD50,[5]; iv,12.3 mg/kg
same,LD50,[5]; po,283 mg/kg
same,normal respiratory function and other vital parameters,[6]; oral,not affected
same,pathological modification of the arterial pressure,[6]; oral,not observed
same,tolerance of oral treatment,[6]; oral,well tolerated
same,sinus bradycardia,"[6]; oral, two subjects (n. 3, 4)",moderate but definite sinus bradycardia
same,atrio-ventricular conduction time (PR interval),"[6]; subject n. 1, delayed from 0.14 sec.",0.16 s
same,atrio-ventricular conduction time (PR interval),"[6]; subject n. 2, delayed from 0.16 sec.",0.18 s
same,"atrio-ventricular conduction time (PR interval), change","[6]; two subjects (n. 1, 2)",slightly prolonged
same,DBP (diastolic blood pressure),[7]; 1 min,13.0 ± 0.74
same,MBP (mean blood pressure),[7]; 1 min,14.8 ± 0.64
same,SBP (systolic blood pressure),[7]; 1 min,18.4 ± 0.48
same,HR (heart rate),[7]; 1 min,556 ± 9.8
same,DBP (diastolic blood pressure),[7]; 2 min,12.0 ± 0.35
same,MBP (mean blood pressure),[7]; 2 min,13.9 ± 0.28
same,SBP (systolic blood pressure),[7]; 2 min,17.8 ± 0.26
same,HR (heart rate),[7]; 2 min,556 ± 7.5
same,DBP (diastolic blood pressure),[7]; 5 min,10.4 ± 0.33
same,MBP (mean blood pressure),[7]; 5 min,12.7 ± 0.19
same,SBP (systolic blood pressure),[7]; 5 min,17.2 ± 0.26
same,HR (heart rate),[7]; 5 min,564 ± 7.5
same,reduction of diastolic blood pressure (DBP),[7]; 5 min after administration,3.1 KPA
same,DBP (diastolic blood pressure),[7]; 10 min,9.4 ± 0.19
same,MBP (mean blood pressure),[7]; 10 min,11.6 ± 0.15
same,SBP (systolic blood pressure),[7]; 10 min,15.9 ± 0.19
same,HR (heart rate),[7]; 10 min,536 ± 7.5
same,DBP (diastolic blood pressure),[7]; 15 min,9.8 ± 0.34
same,MBP (mean blood pressure),[7]; 15 min,11.7 ± 0.28
same,SBP (systolic blood pressure),[7]; 15 min,15.6 ± 0.29
same,HR (heart rate),[7]; 15 min,524 ± 11.7
same,DBP (diastolic blood pressure),[7]; 30 min,11.3 ± 0.62
same,MBP (mean blood pressure),[7]; 30 min,12.9 ± 0.51
same,SBP (systolic blood pressure),[7]; 30 min,16.0 ± 0.35
same,HR (heart rate),[7]; 30 min,496 ± 22.3
same,DBP (diastolic blood pressure),[7]; 60 min,12.4 ± 0.40
same,MBP (mean blood pressure),[7]; 60 min,14.0 ± 0.35
same,SBP (systolic blood pressure),[7]; 60 min,17.3 ± 0.26
same,HR (heart rate),[7]; 60 min,428 ± 24.2
same,DBP (diastolic blood pressure),[7]; 120 min,13.7 ± 0.87
same,MBP (mean blood pressure),[7]; 120 min,15.3 ± 0.90
same,SBP (systolic blood pressure),[7]; 120 min,18.5 ± 1.06
same,DBP (diastolic blood pressure),[7]; TO (baseline),13.5 ± 0.55
same,MBP (mean blood pressure),[7]; TO (baseline),13.2 ± 0.50
same,SBP (systolic blood pressure),[7]; TO (baseline),18.5 ± 0.47
same,HR (heart rate),[7]; TO (baseline),432 ± 28.7
